How the values were obtained:
HEK293 GFP Parkin cells = experiment: Immunoblotting of mitochondrial protein degradation after CCCP; type: cell-based
Experimental: (a) HEK293 GFP Parkin cells were treated with varying doses of SR3677 for 2 hours prior to induction of mitophagy with 10 μM CCCP for one hour. The percentage of cells with mitochondrial Parkin increased in a dose-dependent manner. […] Cell lysates were harvested, proteins were separated by SDS-PAGE and immunoblotting was performed with anti-Mfn2 and anti-actin antibodies. (c) Ponceau VDAC1 levels in each sample normalized to Ponceau staining. (d) Mfn2/actin levels in CCCP treated cells. (e) Densitometry analysis was performed to quantify Mfn2 and VDAC1 levels in each sample (n=4 independent experiments).
HEK293 GFP Parkin cells co-treated with 0.5 μM SR3677 or DMSO and 10 μM CCCP for the indicated time (hours). Cell lysates were separated by SDS-PAGE and immunoblotting was performed to assess turnover of IMM/matrix substrates (A) ATP5A, (B) UQCRC2 and (C) COXIV. Densitometry analysis was performed. Protein levels were normalized to Ponceau. Data is expressed as mean±s.e.m (n=6, 7 and 8 for a, b and c, respectively. 4) P-values were determined by paired student's t-test, *P<0.05.
Lysates were harvested using lysis buffer (0.1M Tris HCl, 0.01% SDS, pH 9) with 1× protease inhibitor cocktail (BioShop, PIC002.1). Lysates were then heated at 95° C. for 20 minutes with vortexing performed at 5-minute intervals. The BCA assay (Pierce, 23227) was performed to determine protein concentration, to standardize protein loading across samples to be compared. 12% SDS-PAGE gels were used to run samples to be analyzed for LC3 conversation and for Tom20 and 10% gels were run for all other samples. Transfer of proteins onto PVDF membrane (Immobilon, IPVH00010) was performed at 110V for 80 minutes or at 36V for 8 hours. Membranes were blocked with 5% skim milk in TBST (1×TBS, 0.1% Tween-20 [BioShop, 1M23298]) for 30 minutes prior to incubation in primary antibodies at a dilution of 1:1000 for all antibodies except anti-ROCK2 and anti-LC3, which were used at a dilution of 1:5000. Visualization of proteins was performed using ECL (BioRad, 11705062).
Densitometry was performed by normalizing bands corresponding to the protein of interest to a loading control such as actin using ImageLab 6.0 software (BioRad).

SH-SY5Y cells = experiment: Cell viability by crystal violet staining; type: cell-based; settings: 0.5 μM pre-treatment, 10 μM CCCP 24 hours
Experimental: A) SH-SY5Y cells were pre-treated with either DMSO or 0.5 μM SR3677 prior to addition of either DMSO or 10 μM CCCP for 24 hours. Following treatment, cells were washed, fixed with 4% paraformaldehyde and stained with crystal violet dye. B) The OD at 550 nm was measured to assess crystal violet staining.
To determine whether these findings could be translated into dopaminergic neurons, the study was continued in the dopaminergic neuroblastoma SH-SY5Y cell line. Parkin undergoes a similar CCCP-dependent subcellular transition from cytosol to mitochondria in these cells^12. First, whether the viability of these cells would be improved by SR3677 was investigated. Initially, experiments were conducted using crystal violet staining as an indicator of cell viability. […] Next, SH-SY5Y cells were differentiated into a more neuron-like population according to protocols previously described^10 and ATP levels were measured. […] Varying concentrations of SR3677 were co-administered alongside the PD-causing toxin paraquat.

HeLa cells = experiment: HK2 distribution after mitochondrial damage; type: cell-based; settings: HeLa cells which lack endogenous Parkin
Excerpt: Since HK2 is also a Parkin substrate, HeLa cells which lack endogenous Parkin were used to examine the effect of SR3677 treatment on HK2 distribution^43.

Canton(S) flies = type: in vivo, Drosophila
Experimental: Fresh vials containing standard fly food supplemented with the indicated treatments were changed out every 2 days. The number of flies surviving each day was counted and log-rank tests were performed to determine statistical significance. […] The number of flies to climb beyond 9.5 cm every 10 seconds was assessed. The percentage of flies in each treatment to cross this line was determined. The climbing ability of each treatment was normalized to the control group treated with water only. […] Log-rank tests were performed to determine p-values for survival analyses (a, b, g), *P<0.05. P-values were determined by one-tailed paired student's t-test for all climbing assays (c-e, h), *P<0.05. Data is expressed as mean±s.e.m. All error bars represent s.e.m
Drosophila aged 7 days are fed food supplemented with either water (control), 1 mM SR3677, 10 mM paraquat or SR3677 in combination with paraquat. The survival of flies was recorded each day following administration of the treatments and climbing abilities were tested every 2 days by performing negative geotaxis assays.
Male Canton(S) Drosophila were aged 7 days prior to feeding with standard fly food supplemented with water, 10 mM paraquat, 1 mM SR3677, or with combinations of these chemicals. Flies were placed into new vials containing fresh food supplemented with the treatments previously administered and 2 days later, climbing assays were performed. Flies were placed into plastic cylinder vials and tapped down, so all flies fell to the bottom. The number of flies to climb beyond 12.5 cm was counted every 10 s and values are represented as the percentage of total flies in each treatment group.

TH-GAL4>UAS-mitoQC flies = experiment: In vivo mitoQC assay in dopaminergic neurons; set-up: species or system Drosophila; settings: SR3677 with sublethal paraquat dose (1 mM), 7 days, vs water
Experimental: Cells were treated with 50 μM chloroquine for 16 hours prior to addition of E64, leupeptin, SR3677 and CCCP in the indicated treatment group. For the in vivo mitoQC assays, 5 7-day old male TH-GAL4>UAS-mitoQC were placed into vials containing water (control), sublethal 1 mM paraquat, 1 mM SR3677 alone and in combination with paraquat for 7 days. Whole flies were then fixed overnight in 1% PFA and 0.1% Tx-100. Fly brains were then dissected and fixed with 4% PFA for 20 minutes. 3 10-minute PBS washes were performed in between each step. Fly brains were mounted in VectaShield™ mounting medium for imaging using the Zeiss LSM700 confocal fluorescence microscope with 40× 1.4 NA Oil Plan-APOCRAMAT objective and the appropriate lasers and filter. 0.8 μm z-stacks were acquired to capture dopaminergic neurons expressing the mitoQC transgene. Laser settings were kept constant within each trial. At least 2 fly brains were imaged for each treatment across 4 independent trials.
The mitoQC assay may also be performed in Drosophila to quantify mitophagy specifically in cell types of interest using the GAL4/UAS system. Briefly, the mitoQC transgene was expressed in dopaminergic neurons using the TH-GAL4 driver^41. Since CCCP cannot be administered without affecting the viability of the flies, 7-day old flies were fed the parkinsonian toxin, paraquat. […]

[1] = 0.5 μM co-treated with 10 μM CCCP

CN(C)CCOc1cc(-c2cn[nH]c2)ccc1NC(=O)[C@@H]1COc2ccccc2O1 [SR3677]
degradation of ATP5A (HEK293 GFP Parkin cells; [1]): increased the degradation | degradation of COXIV (HEK293 GFP Parkin cells; [1]): increased the degradation | degradation of UQCRC2 (HEK293 GFP Parkin cells; [1]): enhanced | fold lower concentration than Y39983 for comparable Mfn2 degradation (HEK293 GFP Parkin cells; 0.5 μM vs 10 μM): 20 fold | turnover of VDAC1 (HEK293 GFP Parkin cells; 0.5 μM, 10 μM CCCP): increased the turnover | concentration administered to enhance Mfn2 degradation (HEK293 GFP Parkin cells; 10 μM CCCP): 0.5 µM | Mfn2 degradation following CCCP (HEK293 GFP Parkin cells; 2 h pre-treatment, 10 μM CCCP, Y39983 10 μM, SR3677 0.5 μM): Increased degradation of Mfn2 | crystal violet staining (OD) (SH-SY5Y cells): increased crystal violet | mitochondrial distribution of HK2 following mitochondrial damage (HeLa cells): increases the mitochondrial distribution of HK2 | survival of flies, compound alone (Canton(S) flies; 1 mM SR3677 in food): does not affect survival of flies | survival of flies challenged with paraquat (Canton(S) flies; 1 mM SR3677 with 10 mM paraquat in food): significantly improved viability of flies | percentage of red-only mitochondrial signal over the total mitochondrial signal (TH-GAL4>UAS-mitoQC flies): greater than flies whose food was supplemented with water
